Reference: patent publication US20230192700A1, “PYRAZOLOPYRAZINES ACTING ON CANCERS VIA INHIBITION OF CDK12” (Bayer Aktiengesellschaft, priority 2020, published 2023)

Molecular target: T1, CDK12 (Homo sapiens, UniProt Q9NYV4)
T1 construct: endogenous in cells; host or cells: CAL-120 human breast cancer cells (DSMZ ACC 459)
Experiment: CDK12 protein level in CAL-120 cells (Protein Simple)
Type: cell-based
Conditions: 18 h, CDK12/HSP90 peak area ratio, median, read-out: CDK12 protein level in CAL-120 breast ca cells DC50 - [mol/l] (median)
Procedure: 5. CDK12 protein level: Protein Simple (CDK12, CAL-120), Westernblot (CDK9, 12, 13)
CAL-120 human breast cancer cells (DSMZ ACC 459) were seeded at 300,000 cells/well in 6-well plates containing 2 mL of growth medium (DMEM, 10%FCS, glutamine) and incubated for 24 h at 37° C. in an humidified incubator. Test compounds were added at various concentrations, control wells received solvent (DMSO), and the plates were incubated for another 18h at 37° C. Cells were washed 2 times with PBS and lysed in 75 microL lysis buffer (MSD-Puffer (MSD, #R6OTX-2), +1% SDS+PhosSTOP (Roche #04906837001)+complete mini (Roche #04693159001)) by scraping. The lysates were pushed 2 times through Qiashedders followed by centrifugation at 14,000 rpm for 30-50 sec. The supernatant was stored at -20° C. […] CDK12 and HSP90 (loading control) were detected using anti-human CDK12 antibody (Cell Signaling Technologies (CST) #11793) at 1:25 dilution and anti-human HSP90 antibody (CST #4877) at 1:5,000 dilution. CDK12 and HSP90 peak areas were determined using Protein Simple Compass software. Ratio of CDK12/HSP90 peak areas were calculated for each sample, and DC50 values (degrading concentration to achieve 50% reduction relative to vehicle treated control) were determined by means of a 4 parameter fit.

T1 sequence (Q9NYV4 whole entry): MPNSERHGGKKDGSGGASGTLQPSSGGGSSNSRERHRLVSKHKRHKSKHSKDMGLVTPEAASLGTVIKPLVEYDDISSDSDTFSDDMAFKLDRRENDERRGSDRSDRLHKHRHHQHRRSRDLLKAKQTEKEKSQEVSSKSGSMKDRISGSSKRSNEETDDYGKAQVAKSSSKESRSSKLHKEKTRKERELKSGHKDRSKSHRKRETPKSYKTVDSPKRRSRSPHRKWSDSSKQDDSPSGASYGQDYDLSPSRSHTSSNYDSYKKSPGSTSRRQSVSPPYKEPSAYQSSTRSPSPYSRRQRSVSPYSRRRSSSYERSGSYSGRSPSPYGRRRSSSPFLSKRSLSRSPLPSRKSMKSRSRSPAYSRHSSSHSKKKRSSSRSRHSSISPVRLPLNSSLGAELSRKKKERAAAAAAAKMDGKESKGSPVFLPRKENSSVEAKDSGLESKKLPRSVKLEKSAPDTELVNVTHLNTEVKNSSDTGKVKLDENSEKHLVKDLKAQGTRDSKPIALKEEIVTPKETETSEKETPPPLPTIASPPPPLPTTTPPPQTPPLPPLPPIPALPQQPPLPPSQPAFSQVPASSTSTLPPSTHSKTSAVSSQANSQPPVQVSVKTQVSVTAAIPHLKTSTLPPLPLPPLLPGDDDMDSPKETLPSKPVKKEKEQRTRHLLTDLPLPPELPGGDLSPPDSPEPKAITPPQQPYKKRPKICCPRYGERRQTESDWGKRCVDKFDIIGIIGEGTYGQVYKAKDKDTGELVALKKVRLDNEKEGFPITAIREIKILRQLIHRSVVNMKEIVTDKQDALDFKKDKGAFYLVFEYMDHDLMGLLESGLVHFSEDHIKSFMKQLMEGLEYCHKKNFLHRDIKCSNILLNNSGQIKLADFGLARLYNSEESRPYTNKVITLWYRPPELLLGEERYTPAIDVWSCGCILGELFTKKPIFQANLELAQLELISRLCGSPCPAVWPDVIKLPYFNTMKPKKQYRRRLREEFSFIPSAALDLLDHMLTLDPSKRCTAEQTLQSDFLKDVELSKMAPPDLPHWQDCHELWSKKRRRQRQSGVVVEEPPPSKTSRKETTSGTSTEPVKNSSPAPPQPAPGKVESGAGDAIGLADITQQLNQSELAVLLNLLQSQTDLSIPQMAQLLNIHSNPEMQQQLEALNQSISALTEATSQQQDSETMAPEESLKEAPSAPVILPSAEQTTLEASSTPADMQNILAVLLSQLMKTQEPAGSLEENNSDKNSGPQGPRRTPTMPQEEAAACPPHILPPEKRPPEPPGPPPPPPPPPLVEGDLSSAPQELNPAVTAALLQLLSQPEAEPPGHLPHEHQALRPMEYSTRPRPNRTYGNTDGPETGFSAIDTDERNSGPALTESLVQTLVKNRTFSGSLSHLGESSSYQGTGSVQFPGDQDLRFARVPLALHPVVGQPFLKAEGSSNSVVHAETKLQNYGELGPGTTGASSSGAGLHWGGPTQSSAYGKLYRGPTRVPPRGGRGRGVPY
T1 sequence (O75909 whole entry partner): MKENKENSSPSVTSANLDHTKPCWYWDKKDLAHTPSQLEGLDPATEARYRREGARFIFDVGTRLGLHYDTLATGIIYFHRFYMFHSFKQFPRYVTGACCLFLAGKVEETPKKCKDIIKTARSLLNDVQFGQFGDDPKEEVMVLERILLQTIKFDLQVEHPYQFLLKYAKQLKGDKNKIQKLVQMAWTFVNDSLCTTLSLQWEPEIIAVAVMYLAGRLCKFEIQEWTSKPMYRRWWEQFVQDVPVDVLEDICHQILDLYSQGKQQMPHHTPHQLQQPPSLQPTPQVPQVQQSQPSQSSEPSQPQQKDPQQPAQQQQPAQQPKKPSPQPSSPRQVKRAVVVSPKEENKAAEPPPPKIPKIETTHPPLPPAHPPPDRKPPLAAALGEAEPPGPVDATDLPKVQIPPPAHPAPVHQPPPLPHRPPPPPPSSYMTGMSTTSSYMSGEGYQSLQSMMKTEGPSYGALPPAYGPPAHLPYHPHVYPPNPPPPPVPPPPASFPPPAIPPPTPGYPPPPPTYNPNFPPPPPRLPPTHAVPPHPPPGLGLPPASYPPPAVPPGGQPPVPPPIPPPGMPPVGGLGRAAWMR

DC50: 31.1 nM
SMILES: c1ccc2[nH]c(CNc3nn(C4CCOCC4)c4nc(C5CC5)cnc34)nc2c1 [Example 16, N-[(1H-benzimidazol-2-yl)methyl]-6-cyclopropyl-1-(oxan-4-yl)-1H-pyrazolo[3,4-b]pyrazin-3-amine]
